Where a name gives a salt, the structure may show the parent alone.
Columns and labels:
[1] = test system: carrageenin-induced foot edema; assay: inhibition of carrageenin-induced foot edema test (C.E.); assay type: in vivo; details: oral; for C.E. percent inhibition (Table B): formula V amides; for inhibition in vivo at 20 µmol/kg: dose 0.02 millimoles/kg; for inhibition in vivo at 4 µmol/kg: dose 0.004 millimoles/kg
Method: (§1) Anti-inflammatory activity was determined using (1) the inhibition of carrageenin-induced foot edema test essentially described by Winter et al., Proc. Soc. Exp. Biol. and Med. 111, 554 (1962) as modified by Van Arman et al., J. Pharmacol. Exptl. Therap. 150, 328 (1965) and (2) a modification of the inhibition of adjuvant-induced arthritis test described by Pierson, J. Chronic Diseases 16, 863 (1963) and Glenn et al., Am. J. Vet. Res. 26, 1180 (1965).
(§2) The N-{2-,3- and 4-[R1 -(phenyl)-C(=X)]-phenyl-lower-alkyl}amines of formulas I, Ia and Ib of the invention have been tested in the carrageenin edema (CE) and adjuvant arthritis (AA) tests and found to have anti-inflammatory activity. For comparative purposes, data obtained in the carrageenin edema test on the reference compound (designated "Ref."), 4[(3-benzoylphenyl)methyl]morpholine, disclosed in French Patent 1,549,342, are also given. All data were obtained on oral administration.

[2] = test system: adjuvant-induced arthritis; assay: inhibition of adjuvant-induced arthritis test (A.A.); assay type: in vivo; details: oral; for A.A. percent inhibition (Table B): formula V amides; for inhibition in vivo at 5 µmol/kg: dose 0.005 millimoles/kg; for inhibition in vivo at 20 µmol/kg: dose 0.02 millimoles/kg; for inhibition in vivo at 160 µmol/kg: dose 0.16 millimoles/kg
Method: as §1, §2

[3] = test system: acetylcholine-induced abdominal constriction; assay: acetylcholine-induced abdominal constriction test (Ach); assay type: in vivo, mice; details: Mus musculus, po, read-out: Ach ED50
Excerpt: J. Pharmacol. Chemotherap. 32, 295 (1968); a modification of the anti-bradykinin test, which is also a primary analgesic screening procedure, described by Berkowitz et al., J. Pharmacol. Exp. Therap. 177, 500-508 (1971), Blane et al., J. Pharm. Pharmacol. 19, 367-373 (1967), Botha et al., Eur. J. Pharmacol. 6, 312-321 (1969) and Deffenu et al., J. Pharm. Pharmacol. 18, 135 (1966); the phenyl-p-quinone-induced writhing test, also a primary analgesic screening test, designed to measure the ability of a test agent to prevent phenyl-p-quinone-induced writhing in mice, described by Pearl and Harris, J. Pharmacol. Exptl. Therap. 154, 319-323 (1966); the rat tail flick radiant thermal heat analgesic (agonist) test described by D'Amour and Smith, J. Pharmacol. Exptl. Therap. 72, 74 (1941) as modified by Bass and VanderBrook, J. Am. Pharm. Assoc. Sci. Ed. 41, 569 (1956); and the phenazocine antagonist test, which is designed to measure the ability of a test agent to antagonize the effect of phenazocine in the above-indicated rat tail flick response test, described by Harris and Pierson, J. Pharmacol. Exptl. Therap. 143, 141 (1964).
The ED50 is the calculated Effective Dose in 50% of the test animals. The abbreviations s.c., p.o. and i.p. stand for subcutaneous, peroral and intraperitoneal routes of administration, respectively. The compounds are identified by the Example numbers above where their preparations are described.

[4] = dose 0.324 millimoles/kg, (a) data obtained after 17 days on test and 9 medications
[5] = read-out: C.E. percent inhibition
[6] = dose 0.08 millimoles/kg, read-out: C.E. percent inhibition
[7] = read-out: A.A. percent inhibition
[8] = dose 0.08 millimoles/kg, read-out: A.A. percent inhibition
[9] = dose 0.324 millimoles/kg, read-out: C.E. percent inhibition
[10] = dose 0.324 millimoles/kg, read-out: A.A. percent inhibition

Structure (SMILES): CC(C(=O)N1CCN(C2CCCCC2)CC1)c1cccc(C(=O)c2ccccc2)c1.Cl (stereo not drawn) [Example 1E, 4-Cyclohexyl-1-[α-(3-benzoylphenyl)propionyl]piperazine hydrochloride]
- convulsions and salivation ([1]; C.E. test, dose 0.324 millimoles/kg): Convulsions and salivation produced in 2 of 8 test animals
- C.E. percent inhibition (Table B) ([1]; dose 0.08 millimoles/kg): 10%
- C.E. percent inhibition (Table B) ([1]; dose 0.324 millimoles/kg): 61%
- A.A. percent inhibition (Table B) ([2]; dose 0.08 millimoles/kg): 63%

Structure (SMILES): CC(C(=O)N1CCN(c2ccccc2)CC1)c1cccc(C(=O)c2ccccc2)c1 (stereo not drawn) [Example 1F, 4-Phenyl-1-[α-(3-benzoylphenyl)propionyl]piperazine]
- C.E. percent inhibition (Table B) ([1]; dose 0.08 millimoles/kg): 2%
- C.E. percent inhibition (Table B) ([1]; dose 0.324 millimoles/kg): 18%
- A.A. percent inhibition (Table B) ([2]; dose 0.324 millimoles/kg): 58%

Structure (SMILES): CC(C(=O)N1CCC(CC2CCCCC2)CC1)c1cccc(C(=O)c2ccccc2)c1 (stereo not drawn) [Example 1L, 4-Cyclohexylmethyl-1-[α-(3-benzoylphenyl)propionyl]piperidine]
- C.E. percent inhibition (Table B) ([1]; dose 0.08 millimoles/kg): 13%
- C.E. percent inhibition (Table B, footnote a) [1, 4]: 31%
- A.A. percent inhibition (Table B, footnote a) [2, 4]: 74%

Structure (SMILES): COc1ccc(C(O)c2cccc(C(C)CN3CCCCC3CC3CCCCC3)c2)cc1 (stereo not drawn) [Example 3, 2-cyclohexylmethyl-1-{2-[3-(α-hydroxy-4-methoxybenzyl)phenyl]propyl}piperidine]
- inhibition in vivo at 5 µmol/kg ([1]; dose 0.005 millimoles/kg, read-out: C.E. percent inhibition): 0%
- inhibition in vivo at 20 µmol/kg [1, 5]: 3%
- inhibition in vivo at 80 µmol/kg [1, 6]: 35%
- inhibition in vivo at 5 µmol/kg [2, 7]: 0%
- inhibition in vivo at 20 µmol/kg [2, 7]: 2%
- inhibition in vivo at 80 µmol/kg [2, 8]: 30%

Structure (SMILES): CC(CN1CCCC1CC1CCCCC1)c1cccc(C(O)c2ccccc2)c1 (stereo not drawn) [Example 3B, 2-Cyclohexylmethyl-1-{2-[3-(α-hydroxybenzyl)phenyl]propyl}pyrrolidine]
- inhibition in vivo at 80 µmol/kg [1, 6]: 19%
- inhibition in vivo at 324 µmol/kg [1, 9]: 63%
- inhibition in vivo at 160 µmol/kg [2, 7]: 91%

Structure (SMILES): COc1ccc(C(=O)c2cccc(C(C)CN3CCCCC3CC3CCCCC3)c2)cc1 (stereo not drawn) [Example 7, 2-cyclohexylmethyl-1-{2-[3-(4-methoxybenzoyl)phenyl]propyl}piperidine]
- inhibition in vivo at 4 µmol/kg [1, 5]: 0%
- inhibition in vivo at 20 µmol/kg [1, 5]: 22%
- inhibition in vivo at 80 µmol/kg [2, 8]: 63%

Structure (SMILES): CC(CN1CCCC1CC1CCCCC1)c1cccc(C(=O)c2ccccc2)c1 (stereo not drawn) [Example 7A, 2-Cyclohexylmethyl-1-[2-(3-benzoylphenyl)propyl]pyrrolidine]
- inhibition in vivo at 80 µmol/kg [1, 6]: 45%
- inhibition in vivo at 324 µmol/kg [1, 9]: 60%
- inhibition in vivo at 160 µmol/kg [2, 7]: 90%

Structure (SMILES): CC(CN1CCCCC1CC1CCCCC1)c1cccc(C(=O)c2ccc(F)cc2)c1 (stereo not drawn) [Example 7B, 2-Cyclohexylmethyl-1-{2-[3-(4-fluorobenzoyl)phenyl]propyl}piperidine]
- inhibition in vivo at 4 µmol/kg [1, 5]: 3%
- inhibition in vivo at 20 µmol/kg [1, 5]: 38%
- inhibition in vivo at 5 µmol/kg [2, 7]: 61%
- inhibition in vivo at 20 µmol/kg [2, 7]: 55%
- inhibition in vivo at 80 µmol/kg [2, 8]: 85%

Structure (SMILES): CC(CN1CCCCC1CCCC1CCCCC1)c1cccc(C(=O)c2ccccc2)c1 (stereo not drawn) [Example 7D, 2-(3-Cyclohexylpropyl)-1-[2-(3-benzoylphenyl)propyl]piperidine]
- inhibition in vivo at 80 µmol/kg [1, 6]: 37%
- inhibition in vivo at 324 µmol/kg [1, 9]: 49%
- inhibition in vivo at 160 µmol/kg [2, 7]: 100%

Structure (SMILES): CC(CN1C(C)CCCC1C)c1cccc(C(=O)c2ccccc2)c1 (stereo not drawn) [Example 13, 2,6-dimethyl-1-[2-(3-benzoylphenyl)propyl]piperidine]
- inhibition in vivo at 4 µmol/kg [1, 5]: 0%
- inhibition in vivo at 15 µmol/kg ([1]; dose 0.015 millimoles/kg, read-out: C.E. percent inhibition): 15%
- inhibition in vivo at 60 µmol/kg ([1]; dose 0.06 millimoles/kg, read-out: C.E. percent inhibition): 37%
- inhibition in vivo at 80 µmol/kg [1, 6]: 54%
- inhibition in vivo at 324 µmol/kg [1, 9]: 56%
- inhibition in vivo at 4 µmol/kg ([2]; dose 0.004 millimoles/kg, read-out: A.A. percent inhibition): 37%
- inhibition in vivo at 15 µmol/kg ([2]; dose 0.015 millimoles/kg, read-out: A.A. percent inhibition): 52%
- inhibition in vivo at 60 µmol/kg ([2]; dose 0.06 millimoles/kg, read-out: A.A. percent inhibition): 78%

Structure (SMILES): CC(CN1CCCCC1)c1cccc(C(=O)c2ccccc2)c1 (stereo not drawn) [Example 14A, 1-[2-(3-Benzoylphenyl)propyl]piperidine hydrochloride]
- inhibition in vivo at 80 µmol/kg [1, 6]: 39%
- inhibition in vivo at 324 µmol/kg [1, 9]: 67%
- inhibition in vivo at 80 µmol/kg [2, 8]: 49%

Structure (SMILES): CC(CN1CCCCC1CC1CCCCC1)c1cccc(C(=NO)c2ccccc2)c1 (stereo not drawn) [Example 15, 2-cyclohexylmethyl-1-[2-(3-benzoylphenyl)propyl]piperidine oxime]
- inhibition in vivo at 4 µmol/kg [1, 5]: 16%
- inhibition in vivo at 20 µmol/kg [1, 5]: 43%
- inhibition in vivo at 20 µmol/kg [2, 7]: 92%
- inhibition in vivo at 80 µmol/kg [2, 8]: 91%

Structure (SMILES): CC(CN1CCCCC1CC1CCCCC1)c1cccc(C(N)c2ccccc2)c1 (stereo not drawn) [Example 16, 2-cyclohexylmethyl-1-{2-[3-(α-aminobenzyl)phenyl]propyl}piperidine dihydrochloride]
- inhibition in vivo at 4 µmol/kg [1, 5]: 16%
- inhibition in vivo at 20 µmol/kg [1, 5]: 31%
- inhibition in vivo at 5 µmol/kg [2, 7]: 80%
- inhibition in vivo at 20 µmol/kg [2, 7]: 89%
- inhibition in vivo at 80 µmol/kg [2, 8]: 108%

Structure (SMILES): NC(c1ccccc1)c1cccc(CN2CCOCC2)c1 (stereo not drawn) [Example 16B, 4-{[3-(α-Aminobenzyl)phenyl]methyl}morpholine dihydrochloride monohydrate]
- inhibition in vivo at 80 µmol/kg [1, 6]: 0%
- inhibition in vivo at 324 µmol/kg [1, 9]: 36%
- inhibition in vivo at 324 µmol/kg [2, 10]: 0%

Structure (SMILES): CC1CCCC(C)N1CCc1ccc(O)c(C(=O)c2ccccc2)c1 (stereo not drawn) [Example 19, 2,6-dimethyl-1-[2-(3-benzoyl-4-hydroxyphenyl)ethyl]piperidine hydrochloride]
- inhibition in vivo at 20 µmol/kg [1, 5]: 5%
- inhibition in vivo at 80 µmol/kg [1, 6]: 0%
- inhibition in vivo at 324 µmol/kg [1, 9]: 23%
- inhibition in vivo at 160 µmol/kg [2, 7]: 1%

Structure (SMILES): CC(CN1CCCCC1CC1CCCCC1)c1cccc(C(=O)c2ccc(Cl)cc2)c1 (stereo not drawn) [Example 20, 2-cyclohexylmethyl-1-{2-[3-(4-chlorobenzoyl)phenyl]propyl}piperidine]
- inhibition in vivo at 4 µmol/kg [1, 5]: 16%
- inhibition in vivo at 20 µmol/kg [1, 5]: 52%
- inhibition in vivo at 5 µmol/kg [2, 7]: 63%
- inhibition in vivo at 20 µmol/kg [2, 7]: 90%
- toxicity ([2]; dose 0.08 millimoles/kg): Toxic

Structure (SMILES): CC(CN1CCCCC1CC1CCCCC1)c1cccc(C(=O)c2ccccc2Cl)c1 (stereo not drawn) [Example 20D, 2-Cyclohexylmethyl-1-{2-[3-(2-chlorobenzoyl)phenyl]propyl}piperidine]
- inhibition in vivo at 4 µmol/kg [1, 5]: 0%
- inhibition in vivo at 20 µmol/kg [1, 5]: 36%
- inhibition in vivo at 5 µmol/kg [2, 7]: 35%
- inhibition in vivo at 20 µmol/kg [2, 7]: 54%
- inhibition in vivo at 80 µmol/kg [2, 8]: 79%

Structure (SMILES): CC(CN1CCOCC1)c1ccc(C(=O)c2ccccc2)cc1 (stereo not drawn) [Example 24A, 4-[2-(4-benzoylphenyl)propyl]morpholine hydrochloride]
- inhibition in vivo at 80 µmol/kg [1, 6]: 44%
- inhibition in vivo at 324 µmol/kg [1, 9]: 56%
- inhibition in vivo at 324 µmol/kg [2, 10]: 78%

Structure (SMILES): CC(CN1CCC2(CC1)OCCO2)c1ccc(C(=O)c2ccccc2)cc1.Cl (stereo not drawn) [Example 24B, 8-[2-(4-benzoylphenyl)propyl]1,4-dioxa-8-azaspiro[4,5]decane hydrochloride]
- inhibition in vivo at 80 µmol/kg [1, 6]: 38%
- inhibition in vivo at 324 µmol/kg [1, 9]: 50%
- inhibition in vivo at 80 µmol/kg [2, 8]: 30%
- toxicity ([2]; dose 0.324 millimoles/kg): Toxic

Structure (SMILES): CC(CN1CCC2(CC1)SCCS2)c1ccc(C(=O)c2ccccc2)cc1.Cl (stereo not drawn) [Example 24E, 8-[2-(4-benzoylphenyl)propyl]-1,4-dithia-8-azaspiro[4,5]decane hydrochloride]
- ED50 [3]: 39 mg/kg

Structure (SMILES): CC(C(=O)N1CCN(C2CCCCC2)CC1)c1cccc(Cc2ccccc2)c1.Cl (stereo not drawn) [Example 25, 4-cyclohexyl-1-[α-(3-benzylphenyl)propionyl]piperazine hydrochloride]
- C.E. percent inhibition (Table B) ([1]; dose 0.08 millimoles/kg): 0%
- C.E. percent inhibition (Table B) ([1]; dose 0.324 millimoles/kg): 45%
- A.A. percent inhibition (Table B) ([2]; dose 0.162 millimoles/kg): 79%

Structure (SMILES): CC(C(=O)N1CCN(C2CCCCCC2)CC1)c1cccc(Cc2ccccc2)c1.Cl (stereo not drawn) [Example 25B, 4-Cycloheptyl-1-[α-(3-benzylphenyl)propionyl]piperazine hydrochloride]
- C.E. percent inhibition (Table B) ([1]; dose 0.08 millimoles/kg): 25%
- C.E. percent inhibition (Table B) ([1]; dose 0.324 millimoles/kg): 44%
- A.A. percent inhibition (Table B) ([2]; dose 0.324 millimoles/kg): 78%
